Results published in US6387886B1, “Method for the treatment of severe chronic bronchitis (bronchietasis) with an aerosolized antibiotic” (Chiron Corporation, priority 1998, dated 2002).
Read-outs that look alike come from different tables or passages of the source.

Legend:
[1] = test system: P. aeruginosa; test: Placebo-controlled clinical study in bronchiectasis: sputum P. aeruginosa density and microbiological response; type: in vivo, Pseudomonas aeruginosa
Method: A placebo-controlled, double-blind, randomized study was conducted to evaluate the microbiological efficacy and safety of inhaled tobramycin for treatment of patients with bronchiectasis and P. aeruginosa. […] The change in P. aeruginosa density in sputum was measured at Weeks 2, 4, and 6 (2 weeks post-treatment). Clinicians assessed patients' general medical condition at Week 6. Safety parameters included adverse events, serum chemistry, and airway reactivity. […] At Week 6, P. aeruginosa was eradicated in 35% of TSI-treated patients but was detected in all placebo patients. […] Few patients withdrew due to adverse events. TSI holds promise as a therapy for patients with bronchiectasis. The study was conducted as follows: […] Patients were excluded if they had CF, a diagnosis of allergic bronchopulmonary aspergillosis, an acute pulmonary process requiring medical intervention as indicated by a new infiltrate on a chest radiograph, significant recent hemoptysis, or had received antibiotics within two weeks of the screening visit. Eligible patients were randomly assigned in blocks of two to parallel groups at each study center to receive either TSI or placebo. […] At all study visits, vital signs were measured, adverse events were recorded, and a sputum sample was collected for quantitative microbiology and susceptibility testing. […] At Week 4, airway reactivity was again monitored, a medical exam was performed, and laboratory tests that were performed at screening were repeated. […] The primary efficacy endpoint was the change in P. aeruginosa density (expressed as log10 CFU/g sputum) from baseline to Week 4. […] (2) an investigator's assessment of change in the patient's general medical condition (“improved” or “not improved”) throughout the study (recorded at Week 6); (3) the percent change in FEV1% predicted and in forced vital capacity (FVC) % predicted from Week 0 to Week 4. […] P. aeruginosa was considered eradicated if it was not detected at Week 6 or if the patient was unable to produce a sputum sample at Week 6 and P. aeruginosa was not isolated at Week 4. […]

[2] = test system: P. aeruginosa; details: CF patients, 300 mg inhaled twice daily, cited from earlier work
[3] = test system: P. aeruginosa isolates; details: initial sputum cultures, CF patients, 1993; cited from earlier work
[4] = test system: Gram-negative bacteria; details: cited from earlier work
[5] = test system: P. aeruginosa; details: cited from earlier work
[6] = purulent sputum; cited from earlier work
[7] = 71 CF patients, 600 mg tid aerosolized

NC[C@H]1O[C@H](O[C@H]2[C@H](O)[C@@H](O[C@H]3O[C@H](CO)[C@@H](O)[C@H](N)[C@H]3O)[C@H](N)C[C@@H]2N)[C@H](N)C[C@@H]1O [tobramycin]
antimicrobial efficacy relative to cystic fibrosis patients ([1]; bronchiectasis versus cystic fibrosis): greater than 10,000 fold | factor by which colony forming units (CFU) of P. aeruginosa are decreased ([1]; in some patients, endobronchial administration): ≥ 10^6 | bronchiectasis patients with complete eradication ([1]; summary statement): 20% | average decrease in P. aeruginosa density ([2]; 28 days on/28 days off, Week 0 to Week 20): 0.8 log10 | average decrease in P. aeruginosa density ([2]; Week 0 to Week 4): 1.9 log10 | isolates with MICs <16 μg/mL [3]: 90% | isolates with MICs ≦128 μg/mL [3]: 98% | concentrations effective in inhibiting the growth of many Gram-negative bacteria [4]: < 4 µg/mL | spirometry [5, 7]: improved spirometry | sputum density of P. aeruginosa [5, 7]: significant reduction | emergence of P. aeruginosa strains highly resistant to tobramycin (MIC >128 μg/mL) ([5]; versus placebo): comparable in the placebo and treatment groups | higher concentrations required in the sputum to overcome inhibitory effects [6]: 5-10 ×
